Consider 17 molecules from US20030050236A1, “Compounds that enhance tumor death” (The University of Chicago, priority 2000, published 2003).

Data set [1] deals with H-Ras- and N-Ras-encoded p21s. The note with it: cited from earlier work.
The conditions of data set [2]: cited from earlier work; for fraction of dose excreted / recovered in the urine: unchanged, intact or active drug.
The target of data set [3] is T1, PPT1 (Homo sapiens, UniProt P50897).
T1 sequence (P50897 28-306): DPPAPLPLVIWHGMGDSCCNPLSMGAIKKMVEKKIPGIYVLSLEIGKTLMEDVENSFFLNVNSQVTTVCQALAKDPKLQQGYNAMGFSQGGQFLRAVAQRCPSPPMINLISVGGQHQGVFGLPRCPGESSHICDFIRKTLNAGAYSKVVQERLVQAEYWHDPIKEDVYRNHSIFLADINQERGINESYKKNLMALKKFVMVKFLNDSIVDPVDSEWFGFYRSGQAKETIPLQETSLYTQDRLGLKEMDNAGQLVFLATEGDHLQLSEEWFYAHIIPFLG
The note with it: cited from earlier work.

For data set [4] the following is noted: cited from earlier work.
The test system of data set [5] is LA-N-5 human neuroblastoma cells. As to the kind of experiment: Cell viability / cell death by MTT assay. It is filed as cell-based. The note with it: LY-294002 30 μM, C2 ceramide 25 μM; 24 hrs. (In general: Formazan colour is commonly taken as a measure of viable cells.)
Experimental: LA-N-5 human neuroblastoma cells were grown in DMEM supplemented with 10% fetal bovine serum and 1% gentamicin. […] Cell death was measured by the MTT method (Cho et al., 2000a; Cho et al., 2000b; Cho et al., 2000c).
The conditions of data set [6]: multiple myeloma, oral administration; cited from earlier work.
Data set [7] concerns the target T1, PPT1. The data set is described as follows: In vitro PPT1 activity assay, [14C]palmitoyl peptide substrates, cell extract.
Experimental: Incubations were performed for 20 min at 37° C. and reactions terminated by addition of 1 ml of chloroform/methanol/2N HCl (2:1:0.06, v/v). After the centrifugation, organic phase was analyzed by HPTLC using n-butanol/pyridine/acetic acid/water (45:30:9:36, v/v) and [14C] palmitate release was quantified.
The peptide sequence, AcGCVKIKK (a palmitoylation site in K-Ras), was modified by substituting the SH group of cysteine with NH2 to generate diamino propionic acid, which was then acylated with palmitate (AcG-palmitoyl diamino propionate-VKIKK). […] In another set of experiments, the unmodified peptide itself (AcGCVKIKK) was used as a control to exclude the possibility of a nonspecific effect of the sequence on PPT activity.
In brief, the cell sonicate was incubated in the assay mixture containing 50 mM sodium citrate (pH 4.0) and IRY([^4C]palmitoylated)CWLRR octapeptide (2,000-4,000 cpm) for 20 min at 37° C. For the pH profile of PPT1 activity, 50 mM sodium citrate (pH 5 or 6) or 50 mM Tris-HCl (pH 7.4) was used with other conditions remaining the same. After addition of 1 ml of chloroform/methanol/2N HCl (2:1:0.06, by volume) and centrifugation, the organic phase was dried, reconstituted sample analyzed by HPTLC using n-butanol/pyridine/acetic acid/water (45:30:9:36, by volume) and the radioactive spot corresponding to [^14C] palmitate was counted.
PPT1 activity was measured as described above. In brief, the cell sonicate was incubated in the assay mixture (50 mM sodium citrate (pH 4.0) for [^14C]palmitoylated [sequence] Po peptide substrate (3,000-4,000 cpm) or 50 mM Tris (pH 7.4) for [^14C]palmitoylated MLCCMRR GAP43 peptide substrate) for 20 min at 37° C. After organic extraction, samples were analyzed by HPTLC using n-butanol/pyridine/acetic acid/water (45:30:9:36, by volume) and the radioactive spot corresponding to [^14C] palmitate was counted.
In data set [8] the test system is PPT1 overexpressing LA-N-5 cells. The data set is described as follows: Cell death by MTT assay in PPT1 overexpressing cells. It is filed as cell-based, human. The note with it: compared to LAN-5 cells. The method, then:
Cells were plated in 24-well culture plates containing 500 μl media. After drug treatment, 50 μl MTT (5 mg/ml in PBS) was added and incubated for 20 min at 37° C. An aliquot of 500 μl of 10% sodium dodecyl sulfate in 0.01 N HCl was added. After incubating overnight, the absorbance at 570 nm was determined by spectrophotometry. Cell viability was calculated as percent cell survival by dividing absorbance [treatment-blank] by absorbance [control-blank], where treatment is the reading for the treated cells, control is for vehicle-treated cells and blank is for MTT added to the media without cells.
In order to further verify that the increased susceptibility to drug-induced apoptosis of the AS-PPT1 treated cells was due to compromised PPT1 activity, the extent of cell death induced by C2-ceramide treatment in control was compared to DAP 1-treated cells. Treatment of cells with DAP1 alone induced 5-10% death of cells at DAP1 concentrations up to 100 μM for 6 h., as measured by MTT assay (FIG. 10A). […] In these cells, neither C2-ceramide, DAP1 alone or DAP1 (100 μM) followed by C2-ceramide (30 μM) for 6 h induced more than 10% cell death (FIG. 10B).
LA-N-5 human neuroblastoma cells were grown in DMEM supplemented with 10% fetal bovine serum and 1% gentamicin. Clones of cells stably expressing PPT1 were selected and maintained by growing in media containing G418 (500 μg/ml) as described (Cho, et al., 2000b). Cell death was measured by the MTT method (Cho et al., 2000a; Cho et al., 2000b; Cho et al., 2000c).

Data set [9] relates to HOG cells, human oligodendroglioma cells. The data set is described as follows: Killing of HOG cells, MTT assay. The data set is classed as cell-based. The note with it: 24 hours. As for the experimental part: The relative potency of DAP1 compared to DAP1 ketoamide (DAP-KA) in killing cells was evaluated. HOG cells, human oligodendroglioma cells, were exposed for 24 hours to a) DAP1 or DAP-KA (FIG. 15A) or […] etoposide and either DAP 1 or DAP-KA (FIG. 15B). The concentration of etoposide was chosen to give 50% killing as measured by MTT assay.

Data set [10] addresses T2, palmitoyl protein thioesterase 1 (PPT1) (human, UniProt P50897 28-306).
T2 sequence: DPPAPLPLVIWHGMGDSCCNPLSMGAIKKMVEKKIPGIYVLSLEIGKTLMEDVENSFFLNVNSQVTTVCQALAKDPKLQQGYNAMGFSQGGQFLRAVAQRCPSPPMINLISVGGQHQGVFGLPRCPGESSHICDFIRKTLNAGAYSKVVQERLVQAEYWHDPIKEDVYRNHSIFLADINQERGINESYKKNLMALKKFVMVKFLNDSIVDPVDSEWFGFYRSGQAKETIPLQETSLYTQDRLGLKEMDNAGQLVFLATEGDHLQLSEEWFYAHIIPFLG
As to the kind of experiment: cell-based or functional assay.

Where a name gives a salt, the structure may show the parent alone. Read-outs that look alike come from different tables or passages of the source. *1 amine or outer side, *2 acyl side, *3 side chain or, on linkers, in order; H or OH if unused. Where a SMILES comes first, the peptide text is derived from it. Bridges are numbered along the chain shown (N, C = ends). Roman numbers before positions name the chains, in order. Where no end group is shown, it is not given here. [ ]: non-standard residue; d: D form. Actinocin(9to1) = Cc1c2oc3c(C)ccc(C(=O)[*:1])c3nc-2c(C(=O)[*:2])c(N)c1=O; NMeV = CN[C@H](C(=O)O)C(C)C; Dap = NC[C@H](N)C(=O)O; Sar = CNCC(=O)O

With `C/C=C/C/C=C/CCC(=O)[C@H]1O[C@H]1C(N)=O` (relative stereo) [cerulenin, [2R, 3S]-2,3-epoxy-4-oxo-7,10-trans, trans-dodecadienamide], the “palmitoylation of Ras p21s” value in data set [1] is given as “able to inhibit the palmitoylation”.

`Cc1c2oc3c(C)ccc(C(=O)N[C@@H]4C(=O)N[C@H](C(C)C)C(=O)N5CCC[C@H]5C(=O)N(C)CC(=O)N(C)[C@@H](C(C)C)C(=O)O[C@@H]4C)c3nc-2c(C(=O)N[C@@H]2C(=O)N[C@H](C(C)C)C(=O)N3CCC[C@H]3C(=O)N(C)CC(=O)N(C)[C@@H](C(C)C)C(=O)O[C@@H]2C)c(N)c1=O` [Actinomycin D] (I: T[dV]P[Sar][NMeV] / II: T[dV]P[Sar][NMeV]; ester I:1-I:C, II:1-II:C; linker I:N-II:N via Actinocin(9to1)): the “fraction of dose excreted / recovered in the urine” value in data set [2] is reported as 10%.

Regarding `CC[C@H](C)[C@H]1NC(=O)[C@@H](NC(=O)[C@@H](CC(C)C)N(C)C(=O)[C@@H]2CCCN2C(=O)C(C)O)[C@@H](C)OC(=O)[C@H](Cc2ccc(OC)cc2)N(C)C(=O)[C@@H]2CCCN2C(=O)[C@H](CC(C)C)NC(=O)[C@@H](C)C(=O)[C@H](C(C)C)OC(=O)C[C@@H]1O` (stereo partly shown) [Didemnin], the “mode of PPT1 inhibition” value in data set [3] was “non-competitively inhibit PPT1 activity”.

In the case of `COc1cccc2c1C(=O)c1c(O)c3c(c(O)c1C2=O)C[C@@](O)(C(=O)CO)C[C@@H]3O[C@H]1C[C@H](N)[C@H](O)[C@H](C)O1` [Doxorubicin, 5,12-Naphthacenedione, (8 s-cis)-10-[(3-amino-2,3,6-trideoxy-a-L-lyxo-hexopyranosyl)oxy]-7,8,9,1 0-tetrahydro-6,8,11-trihydroxy-8-(hydroxyacetyl)-1-methoxy-hydrochloride], the “probability of developing impaired myocardial function” value in [4] (400 mg/m^2) is on record as 3 to 5%; in [4] (450 mg/m^2) it was 5 to 8%; in data set [4] (500 mg/m^2), 6 to 20%; in [4] (total cumulative dose of 300 mg/m^2) it was 1 to 2%.

In the case of `O=c1cc(N2CCOCC2)oc2c(-c3ccccc3)cccc12` [LY-294002], the “cell death (MTT assay)” value in data set [5] is “about 50%”.

On to `O=NN(CCCl)C(=O)NC1CCCCC1` [Lomustine, 1-(2-chloro-ethyl)-3-cyclohexyl-1 nitrosourea], for which the “radioactivity excreted as degradation products within 24 hours” value in data set [2] (oral, 30 mg/m^2 to 100 mg/m^2) is listed as “about half”.

`N[C@@H](Cc1ccc(N(CCCl)CCCl)cc1)C(=O)O` [Melphalan, 4-[bis(2-chloroethyl)amino]-L-phenylalanine]: in data set [6], the “patients showing a favorable response” value was “one third to one half”.

`CO[C@@]12[C@H](COC(N)=O)C3=C(C(=O)C(C)=C(N)C3=O)N1C[C@@H]1N[C@@H]12` [Mitomycin]: the “fraction of dose excreted / recovered in the urine” value in data set [2] is given as “Approximately 10%”.

Take `O=S(=O)(F)Cc1ccccc1` [PMSF, phenylmethylsulfonyl fluoride]: the “effect on PPT1 enzyme activity” value in data set [7] (preincubation with 1 mM, control or PPT1 transfected cells) was “did not affect the enzyme activity”.

`CC[C@]1(O)C[C@@H]2CN(CCc3c([nH]c4ccccc34)[C@@](C(=O)OC)(c3cc4c(cc3OC)N(C)[C@H]3[C@@](O)(C(=O)OC)[C@H](OC(C)=O)[C@]5(CC)C=CCN6CC[C@]43[C@@H]65)C2)C1` [Vinblastine]: the “fraction of dose excreted / recovered in the urine” value in data set [2] is “Approximately 15%”.

Regarding `COc1cccc2c1C(=O)c1c(O)c3c(c(O)c1C2=O)C[C@@](O)(C(C)=O)C[C@@H]3O[C@H]1C[C@H](N)[C@H](O)[C@H](C)O1` [daunorubicin, 5,12-Naphthacenedione, (8S-cis)-8-acetyl-10-[(3-amino-2,3 ,6-trideoxy-a-L-lyxo-hexanopyranosyl)oxy]-7,8 ,9,1 0-tetrahydro-6,8, 11-trihydroxy-10-methoxy-, hydrochloride], the “susceptibility of PPT1 overexpressing cells to killing” value (shortened to “susceptibility”) in data set [8] is “markedly decreased susceptibility to killing”.

In the case of `COc1cc([C@@H]2c3cc4c(cc3[C@@H](O[C@@H]3O[C@@H]5CO[C@@H](C)O[C@H]5[C@H](O)[C@H]3O)[C@H]3COC(=O)[C@H]23)OCO4)cc(OC)c1O` [etoposide], the “killing (MTT assay)” value in [9] (10 mM etoposide) was found to be 50%. For the same molecule, in [8], the “susceptibility” value is listed as “markedly decreased susceptibility to killing”.

Regarding `CN[C@@H]1C[C@H]2O[C@@](C)([C@@H]1OC)n1c3ccccc3c3c4c(c5c6ccccc6n2c5c31)C(=O)NC4` [staurosporine], in data set [8], the “susceptibility” value is on record as “markedly decreased susceptibility to killing”.

For “AcG-Dap((+/−)α-hydroxyhexadecanoyl)-VKIKK.amide (Ac-G[Dap]VKIKK-NH2; not fully specified (residue 2); printed as AcG-Dap((+/−)α-hydroxyhexadecanoyl)-VKIKK.amide) [DAP-KA, ketoamide form of DAP1]”, the “potency as inhibitor relative to DAP1” value in data set [7] is recorded as “more potent inhibitor than DAP1”. For the same molecule, the “potency as inducer of cell death relative to DAP1” value in data set [9] (with etoposide) is given as “more potent inducer of cell death than DAP1”.

Molecule “AcG-palmitoyl diamino propionate-VKIKK (DAP1) (peptide)” registered an inhibition in an in vitro assay (PPT activity) (% inhibition at 20 µM) in data set [10] of 85.

In the case of AcGCVKIKK (Ac-GCVKIKK-NH2), the “effect on PPT1 activity” value in data set [7] (cell extract preincubated 15 min at 37° C., Po, rhodopsin, GAP-43, Gα peptide substrates) is given as “did not affect PPT activity”.

B1: [14C]palmitoylated GAP43 peptide (MLCCMRR) (peptide)
peptide: MLCCMRR
modifications: also: [14C]palmitoyl thioester on one Cys, which not given here
Regarding B1, the “depalmitoylation by extract of PPT1-overexpressing cells against vector-transfected cells” value in [10] is around 2.5 fold.
